Source: ChEMBL document CHEMBL1135778, “Synthesis and molecular modeling of new 1-aryl-3-[4-arylpiperazin-1-yl]-1-propane derivatives with high affinity at the serotonin transporter and at 5-HT(1A) receptors” (J Med Chem, 2002)

What was measured:
[1] = target: Sodium-dependent serotonin transporter (Rattus norvegicus, UniProt P31652); assay: Binding affinity towards Serotonin transporter (5-HTT) in rat frontal cortex homogenates; format: tissue-based
[2] = target: T1, 5-hydroxytryptamine receptor 1A (Mus musculus) (UniProt Q64264); assay: Antagonist activity at 5-hydroxytryptamine 1A receptor against (+)-8-OH-DPAT induced hypothermia in mice at 1 mg/kg after 60 min; format: functional, organism-based; set-up: dose 1 mg/kg
T1 sequence (whole entry): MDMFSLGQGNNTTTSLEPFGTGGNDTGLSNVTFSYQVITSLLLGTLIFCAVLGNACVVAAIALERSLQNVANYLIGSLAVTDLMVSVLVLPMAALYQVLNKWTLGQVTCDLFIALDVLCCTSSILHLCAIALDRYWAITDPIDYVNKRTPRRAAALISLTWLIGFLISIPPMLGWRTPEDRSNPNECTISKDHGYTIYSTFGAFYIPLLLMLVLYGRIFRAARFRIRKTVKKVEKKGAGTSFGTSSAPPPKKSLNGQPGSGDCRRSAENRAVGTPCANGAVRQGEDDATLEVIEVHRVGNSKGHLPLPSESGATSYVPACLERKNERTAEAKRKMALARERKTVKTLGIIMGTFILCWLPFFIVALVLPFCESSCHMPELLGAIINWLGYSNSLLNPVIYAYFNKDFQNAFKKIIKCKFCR

[3] = target: T2, 5-hydroxytryptamine receptor 1A (Rattus norvegicus) (UniProt P19327); assay: Percent inhibition of (+)-8-OH-DPAT stimulated [35S]GTP-gamma-S, binding to 5-hydroxytryptamine 1A receptor in hippocampal membranes; format: functional, cell membranes; set-up: concentration or dose not given beside the values; conditions: concentration not given here
T2 sequence (whole entry): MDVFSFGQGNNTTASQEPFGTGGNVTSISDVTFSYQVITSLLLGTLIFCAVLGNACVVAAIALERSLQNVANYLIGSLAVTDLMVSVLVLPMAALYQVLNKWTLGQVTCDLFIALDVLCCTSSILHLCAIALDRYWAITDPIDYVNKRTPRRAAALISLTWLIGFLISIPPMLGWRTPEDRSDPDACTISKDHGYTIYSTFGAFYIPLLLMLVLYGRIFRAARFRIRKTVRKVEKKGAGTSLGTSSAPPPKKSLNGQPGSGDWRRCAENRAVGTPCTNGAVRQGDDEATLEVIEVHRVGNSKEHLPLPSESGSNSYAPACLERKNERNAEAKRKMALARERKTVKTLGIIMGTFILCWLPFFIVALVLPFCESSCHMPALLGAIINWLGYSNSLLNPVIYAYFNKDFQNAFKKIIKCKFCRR

[4] = target: T1, 5-hydroxytryptamine receptor 1A (Mus musculus); assay: Antagonist activity at 5-hydroxytryptamine 1A receptor against (+)-8-OH-DPAT induced hypothermia in mice at 1 mg/kg after 15 min; format: functional, organism-based; set-up: dose 1 mg/kg
[5] = target: T2, 5-hydroxytryptamine receptor 1A (Rattus norvegicus); assay: Antagonist activity to stimulate binding of [35S]-GTP-gamma S binding to 5-hydroxytryptamine 1A receptor in isolated rat hippocampal membranes; format: functional, cell membranes; conditions: Membrane, scale: (fM of GTP-gammaS bound)
[6] = target: T2, 5-hydroxytryptamine receptor 1A (Rattus norvegicus); assay: Antagonist activity to stimulate binding of [35S]GTP-gamma-S, to 5-hydroxytryptamine 1A receptor in isolated rat hippocampal membranes; format: functional, cell membranes; conditions: Membrane, scale: (fM of GTP-gammaS bound)
[7] = target: T1, 5-hydroxytryptamine receptor 1A (Mus musculus); assay: Antagonist activity at 5-hydroxytryptamine 1A receptor against (+)-8-OH-DPAT induced hypothermia in mice at 10 mg/kg after 30 min; format: functional, organism-based; set-up: dose 10 mg/kg
[8] = target: T2, 5-hydroxytryptamine receptor 1A (Rattus norvegicus); assay: Inhibition of (+)-8-OH-DPAT stimulated [35S]GTP-gamma-S, binding in rat hippocampal membranes; format: functional, cell membranes; conditions: Hippocampus, Membrane, scale: (fM of GTP-gammaS bound)
[9] = target: T3, 5-hydroxytryptamine receptor 1A (Rattus norvegicus, UniProt P19327); assay: Binding affinity towards 5-hydroxytryptamine 1A receptor in rat frontal cortex homogenates; format: tissue-based
T3 sequence (P19327 whole entry): T2 sequence (whole entry)

[10] = target: T2, 5-hydroxytryptamine receptor 1A (Rattus norvegicus); assay: Percent increase of R(+)-8-OH-DPAT stimulated [35S]GTP-gamma-S, binding to 5-hydroxytryptamine 1A receptor in isolated rat hippocampal membranes; format: functional, cell membranes; conditions: Membrane
[11] = target: T1, 5-hydroxytryptamine receptor 1A (Mus musculus); assay: Antagonist activity at 5-hydroxytryptamine 1A receptor against (+)-8-OH-DPAT induced hypothermia in mice at 10 mg/kg after 15 min; format: functional, organism-based; set-up: dose 10 mg/kg
[12] = target: T1, 5-hydroxytryptamine receptor 1A (Mus musculus); assay: Antagonist activity at 5-hydroxytryptamine 1A receptor against (+)-8-OH-DPAT induced hypothermia in mice at 1 mg/kg after 30 min; format: functional, organism-based; set-up: dose 1 mg/kg
[13] = target: T1, 5-hydroxytryptamine receptor 1A (Mus musculus); assay: Antagonist activity at 5-hydroxytryptamine 1A receptor against (+)-8-OH-DPAT induced hypothermia in mice at 10 mg/kg after 60 min; format: functional, organism-based; set-up: dose 10 mg/kg
[14] = target: T3, 5-hydroxytryptamine receptor 1A; assay: Inhibition of (+)-8-OH-DPAT stimulated [35S]GTP-gamma-S, binding to 5-hydroxytryptamine 1A receptor in hippocampal membranes; format: functional, cell membranes

Chain of Sodium-dependent serotonin transporter (P31652 whole entry): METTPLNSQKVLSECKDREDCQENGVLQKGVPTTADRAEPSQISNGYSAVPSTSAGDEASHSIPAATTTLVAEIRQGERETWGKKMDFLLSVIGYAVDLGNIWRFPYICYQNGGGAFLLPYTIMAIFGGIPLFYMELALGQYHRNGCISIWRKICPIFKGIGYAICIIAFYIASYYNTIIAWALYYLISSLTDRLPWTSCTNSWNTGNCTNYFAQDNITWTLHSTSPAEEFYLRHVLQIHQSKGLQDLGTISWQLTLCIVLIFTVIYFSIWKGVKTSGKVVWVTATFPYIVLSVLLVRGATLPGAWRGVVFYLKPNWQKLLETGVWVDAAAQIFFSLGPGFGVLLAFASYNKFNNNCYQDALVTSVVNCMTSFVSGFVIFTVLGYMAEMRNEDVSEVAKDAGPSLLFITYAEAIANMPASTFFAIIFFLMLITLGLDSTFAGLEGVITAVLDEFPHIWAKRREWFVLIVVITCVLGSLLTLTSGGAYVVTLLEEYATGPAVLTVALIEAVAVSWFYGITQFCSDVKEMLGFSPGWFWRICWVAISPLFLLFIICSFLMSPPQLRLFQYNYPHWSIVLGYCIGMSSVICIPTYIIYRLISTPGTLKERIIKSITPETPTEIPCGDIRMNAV

Row | Structure (SMILES) | Ki [1] | Change in body temperature [2] | inhibition [3] | Change in body temperature [4] | Max [5] | Basal [6] | Change in body temperature [7] | Basal [8] | Max [8] | Ki ([9]; read-out: Ki) | Increase [10] | Change in body temperature [11] | Change in body temperature [12] | Change in body temperature [13] | IC50 [14] | Ki [9]
1 | OC(CCN1CCN(c2cccc3cccnc23)CC1)c1csc2ccccc12 (stereo not given) | 24 nM | -1.09 °C | 69% | -2.38 °C | 15.6 | 11.9 | -0.52 °C | 16.4 | 19.7 | 6.3 nM | 31% | -0.8 °C | -1.86 °C | -0.2 °C | 18 nM | –
2 | OC(CCN1CCN(c2cccc3cccnc23)CC1)c1csc2ccc(F)cc12 (stereo not given) | – | – | – | – | 23.9 | 13.9 | – | – | – | – | 71.4% | – | – | – | – | –
3 | OC(CCN1CCN(c2cccc3c2OCCO3)CC1)c1csc2ccccc12 (stereo not given) | 50 nM | -1.94 °C | 90% | -2.9 °C | 16.1 | 15.6 | -1.03 °C | 18.5 | 19.1 | 5.7 nM | 3.4% | -1.38 °C | -2.47 °C | -0.5 °C | 56.2 nM | –
4 | OC(CCN1CCN(c2cccc3c2OCCO3)CC1)c1csc2ccc(F)cc12 (stereo not given) | 16 nM | -1.04 °C | 101% | -1.49 °C | 14 | 11.9 | -0.72 °C | 19.1 | 18.9 | – | 17.9% | -1.33 °C | -1.04 °C | -0.84 °C | 31.2 nM | –
5 | OC(CCN1CCN(c2cccc3[nH]ccc23)CC1)c1csc2ccccc12 (stereo not given) | – | -1.13 °C | 90% | -2.08 °C | 16.9 | 13.4 | 0.84 °C | 12.8 | 13.9 | – | 26.3% | -1.03 °C | -1.59 °C | -0.8 °C | 31.2 nM | –
6 | OC(CCN1CCN(c2cccc3ccccc23)CC1)c1csc2ccc(F)cc12 (stereo not given) | 6 nM | – | – | – | – | – | – | – | – | – | – | – | – | – | – | –
7 | OC(CCN1CCN(c2ccc3sccc3c2)CC1)c1csc2ccccc12 (stereo not given) | 3.2 nM | – | – | – | – | – | – | – | – | 913 nM | – | – | – | – | – | –
8 | OC(CCN1CCN(c2cccc3ncccc23)CC1)c1csc2ccccc12 (stereo not given) | 32.5 nM | – | – | – | – | – | – | – | – | 36.8 nM | – | – | – | – | – | –
9 | OC(CCN1CCN(c2cccc3[nH]ccc23)CC1)c1csc2ccc(F)cc12 (stereo not given) | – | -2.72 °C | 110% | -3.28 °C | 13.7 | 10.1 | -0.89 °C | 11.2 | 10.1 | – | 35.5% | -0.95 °C | -3.61 °C | -0.95 °C | 16.1 nM | –
10 | OC(CCN1CCN(c2cccc3c2OCCCO3)CC1)c1csc2ccc(F)cc12 (stereo not given) | 21.2 nM | – | 84% | – | 17.7 | 14.4 | – | 18.7 | 20.4 | 3 nM | 22.8% | – | – | – | 360 nM | –
11 | CCCN(CCC)C1CCc2cccc(O)c2C1 (stereo not given) | – | – | – | – | 25.9 | 13.5 | – | 13 | 23.8 | – | 91.8% | – | – | – | – | –
12 | OC(CCN1CCN(c2cccc3c2OCO3)CC1)c1csc2ccc(F)cc12 (stereo not given) | 58 nM | – | – | – | – | – | – | – | – | 9.4 nM | – | – | – | – | – | –
13 | OC(CCN1CCN(c2cnc3ccccc3c2)CC1)c1csc2ccccc12 (stereo not given) | 4.2 nM | – | – | – | – | – | – | – | – | 995 nM | – | – | – | – | – | –
14 | OC(CCN1CCN(c2cccc3c2OCCCO3)CC1)c1csc2ccccc12 (stereo not given) | 77 nM | – | – | – | – | – | – | – | – | – | – | – | – | – | – | 1.9 nM
15 | OC(CCN1CCN(c2cccc3ccccc23)CC1)c1csc2ccccc12 (stereo not given) | 81.7 nM | – | – | – | – | – | – | – | – | 66.7 nM | – | – | – | – | – | –
